The text below walks through data of patent publication US20250368666A1, “INDAZOLE COMPOUNDS” (TYRA BIOSCIENCES, INC., priority 2022, published 2025).

Assay [1] relates to RT112/84 cell line (FGFR3-fusion). Nature of the assay: Cancer cell line cell viability assay (Cell Titer-Glo), 72 hr. The assay is classed as cell-based. Particulars: Homo sapiens, RT112/84, RT112/84 cell line (FGFR3-fusion). The text has this:
(§1) Experimental Purpose: To detect the change of intracellular ATP by Cell Titer-Glo® and to evaluate the inhibitory effect of the compounds on cancer cell lines by determining the in vitro IC50 value of the compounds.
(§2) Cell Titer-Glo® 2.0 Luminescent cell viability assay reagent was purchased from Promega (Madison, WI). KG-1, KATO-III, and MDA-MB-453 cell lines were purchased from American Type Culture Collection (Manassas, VA). RT112/84 cell line was purchased from Millipore-Sigma (St. Louis, MO). HuH7 cells were purchased from Seikisui Xenotech (Kansas City, KS). RT112/84 and MDA-MB-453 cells were cultured in RPMI1640 media supplemented with 10% fetal bovine serum. KG-1 and KATO-III cell lines were cultured in IMDM media supplemented with 20% FBS. HuH7 cells were cultured in IMDM media supplemented with 10% FBS. Cultures were maintained at 37° C. in a humidified atmosphere of 5% CO2 and 95% air.
(§3) Cell Viability Assay Procedure: Cells were plated in 96-well clear bottom/white plates (Corning #3903) at a range of densities depending on the optimal assay window (5,000-20,000 cells/well in […] of media), incubated overnight. The next day, test compound DMSO stock solutions were made at 10 mM and […] final concentration. Compounds were then added to cells in a 9-dose, 4-fold dilution series starting at 3 μM with an HP 300e Digital Dispenser (each dose was applied in triplicate). DMSO was backfilled to each well up to 301 nL total volume of test compound+DMSO, and a total of 301 nL DMSO was added to a control/no test compound well in triplicate. The cells in cell culture plates were incubated with the compounds at 37° C. and 5% CO2 for 72 hours-120 hours depending on the cell line. Then 50 μl of Cell Titer Glo 2.0 reagent was added to each well of the cell culture plates. The contents were covered from light and mixed on an orbital shaker at room temperature for minimum of 10 min. Luminescence was recorded by a Clariostar Plus Microplate Reader (BMG Labtech, Cary, NC). Cells were assessed as a percentage of DMSO only treated control cells. Curves were plotted and IC50 values were calculated using the GraphPad Prism 9 program based on a sigmoidal dose-response equation (log (inhibitor) vs. response—Variable slope, 4-parameter).

Assay [2] deals with KATO-III cell line (FGFR2 amplification). The description is as above. The conditions noted are these: Homo sapiens, KATO III. The format is cell-based.
From the text: as §1, §2, §3

The subject of assay [3] is KG-1 cell line (FGFR 1-fusion). The assay is described as above. The assay is classed as cell-based. The conditions noted are these: Homo sapiens, KG-1, KG-1 cell line (FGFR1-fusion).
From the text: as §1, §2, §3

Another assay addresses T1, FGFR4 (Homo sapiens, UniProt P22455).
T1 construct: made in house; host or cells: E. coli (BL21-derived), T7 phage
Briefly: Kinase binding assay (kinase-tagged T7 phage, affinity beads, qPCR), Kd. Particulars: read-out: FGFR4 (Kd nM). A digest of the protocol:
(§4)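 Competition binding of compounds against kinase-tagged T7 phage captured on immobilised biotinylated ligand beads; bead-bound kinase quantified by qPCR of eluates. 11-point 3-fold dilution, 0.9% DMSO final; Kd from Hill fit with slope fixed at −1.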
(In qPCR the cycle at which signal appears reflects the starting amount.)

A further assay addresses T2, FGFR3 (Homo sapiens, UniProt P22607).
T2 construct: made in house; host or cells: E. coli (BL21-derived), T7 phage
The description is as above. Particulars: read-out: FGFR3 (Kd nM). In short, it runs like this: as §4

In a further assay the target is T3, FGFR2 (Homo sapiens, UniProt P21802).
T3 construct: made in house; host or cells: E. coli (BL21-derived), T7 phage
Described as above. The conditions noted are these: read-out: FGFR2 (Kd nM). A digest of the protocol: as §4

Another assay has as its target T4, FGFR3 (V555M) (Homo sapiens, UniProt P22607, V555M).
T4 construct: made in house; host or cells: E. coli (BL21-derived), T7 phage
The description is as above. Particulars: V555M mutant; read-out: FGFR3 (V555M) (Kd nM). In short, it runs like this:
as §4

The target in the next assay is T5, FGFR1 (Homo sapiens, UniProt P11362).
T5 construct: made in house; host or cells: E. coli (BL21-derived), T7 phage
The description is as above. Particulars: read-out: FGFR1 (Kd nM). A digest of the protocol: as §4

The mark [4] stands for this setting: kinase binding assay, 11-point 3-fold dilution series.

Where two headings read alike, the source gives them in different places.

T5 sequence (P11362 22-822): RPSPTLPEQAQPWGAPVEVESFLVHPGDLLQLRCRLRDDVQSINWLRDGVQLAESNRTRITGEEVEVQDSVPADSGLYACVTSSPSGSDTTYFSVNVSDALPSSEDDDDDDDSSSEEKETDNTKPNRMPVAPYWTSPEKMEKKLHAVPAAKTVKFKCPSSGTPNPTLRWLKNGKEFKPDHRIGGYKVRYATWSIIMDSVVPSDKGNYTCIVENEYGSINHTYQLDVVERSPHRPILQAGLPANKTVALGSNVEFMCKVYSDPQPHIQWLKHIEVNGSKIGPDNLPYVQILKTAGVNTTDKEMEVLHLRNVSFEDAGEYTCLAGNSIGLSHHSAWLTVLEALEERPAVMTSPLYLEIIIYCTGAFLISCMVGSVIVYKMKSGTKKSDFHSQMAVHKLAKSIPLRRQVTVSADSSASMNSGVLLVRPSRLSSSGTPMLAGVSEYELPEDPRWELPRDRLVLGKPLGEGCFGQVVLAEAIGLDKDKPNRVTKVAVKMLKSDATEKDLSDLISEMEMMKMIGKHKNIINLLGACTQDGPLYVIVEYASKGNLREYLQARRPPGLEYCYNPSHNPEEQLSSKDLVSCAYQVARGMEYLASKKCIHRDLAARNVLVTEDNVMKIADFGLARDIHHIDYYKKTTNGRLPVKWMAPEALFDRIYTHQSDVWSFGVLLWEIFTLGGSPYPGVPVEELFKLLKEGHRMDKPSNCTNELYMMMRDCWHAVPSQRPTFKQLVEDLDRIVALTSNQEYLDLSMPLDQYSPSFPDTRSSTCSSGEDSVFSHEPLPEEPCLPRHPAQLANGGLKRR
T4 sequence (P22607 23-806 V555M): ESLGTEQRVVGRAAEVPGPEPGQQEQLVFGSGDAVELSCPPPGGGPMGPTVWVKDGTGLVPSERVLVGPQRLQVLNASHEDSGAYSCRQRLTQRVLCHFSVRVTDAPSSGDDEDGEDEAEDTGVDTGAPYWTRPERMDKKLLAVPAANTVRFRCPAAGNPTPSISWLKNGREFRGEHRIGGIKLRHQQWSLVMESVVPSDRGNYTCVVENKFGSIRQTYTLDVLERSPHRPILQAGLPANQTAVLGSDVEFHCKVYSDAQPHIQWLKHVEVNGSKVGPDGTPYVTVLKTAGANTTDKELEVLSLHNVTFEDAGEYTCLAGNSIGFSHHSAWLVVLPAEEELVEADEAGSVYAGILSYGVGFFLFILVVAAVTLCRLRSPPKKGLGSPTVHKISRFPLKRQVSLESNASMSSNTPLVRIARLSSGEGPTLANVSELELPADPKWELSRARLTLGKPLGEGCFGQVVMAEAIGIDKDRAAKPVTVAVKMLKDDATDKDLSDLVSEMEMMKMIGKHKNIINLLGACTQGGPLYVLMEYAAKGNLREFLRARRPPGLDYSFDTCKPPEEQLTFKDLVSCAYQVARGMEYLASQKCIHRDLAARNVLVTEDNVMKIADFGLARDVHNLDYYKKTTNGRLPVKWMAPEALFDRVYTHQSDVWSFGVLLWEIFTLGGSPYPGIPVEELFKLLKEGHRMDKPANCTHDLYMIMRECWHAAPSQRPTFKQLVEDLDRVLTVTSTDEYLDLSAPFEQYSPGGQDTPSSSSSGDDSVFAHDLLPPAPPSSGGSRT
T2 sequence (P22607 23-806): as the sequence (P22607 23-806 V555M) above, with M533V counted along it
T1 sequence (P22455 22-802): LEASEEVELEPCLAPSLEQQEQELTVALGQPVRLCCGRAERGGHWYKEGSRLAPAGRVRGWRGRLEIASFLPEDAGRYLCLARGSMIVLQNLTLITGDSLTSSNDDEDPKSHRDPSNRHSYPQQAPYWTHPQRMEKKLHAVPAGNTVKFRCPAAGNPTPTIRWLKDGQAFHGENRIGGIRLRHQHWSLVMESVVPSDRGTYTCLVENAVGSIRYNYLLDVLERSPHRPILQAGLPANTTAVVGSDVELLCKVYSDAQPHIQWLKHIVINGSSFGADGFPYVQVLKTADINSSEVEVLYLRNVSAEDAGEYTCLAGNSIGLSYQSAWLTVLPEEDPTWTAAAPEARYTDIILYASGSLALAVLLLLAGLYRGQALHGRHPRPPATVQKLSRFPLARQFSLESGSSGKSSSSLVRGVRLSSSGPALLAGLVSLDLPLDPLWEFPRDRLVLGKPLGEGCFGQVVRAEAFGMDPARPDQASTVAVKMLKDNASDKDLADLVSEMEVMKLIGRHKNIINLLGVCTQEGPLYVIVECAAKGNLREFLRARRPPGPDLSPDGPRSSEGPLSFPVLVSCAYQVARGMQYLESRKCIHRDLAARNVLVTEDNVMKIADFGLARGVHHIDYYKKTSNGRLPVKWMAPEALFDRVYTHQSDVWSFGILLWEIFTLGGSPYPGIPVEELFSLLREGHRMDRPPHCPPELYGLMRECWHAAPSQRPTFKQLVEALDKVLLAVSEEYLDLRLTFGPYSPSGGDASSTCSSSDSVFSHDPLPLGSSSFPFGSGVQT
T3 sequence (P21802 22-821): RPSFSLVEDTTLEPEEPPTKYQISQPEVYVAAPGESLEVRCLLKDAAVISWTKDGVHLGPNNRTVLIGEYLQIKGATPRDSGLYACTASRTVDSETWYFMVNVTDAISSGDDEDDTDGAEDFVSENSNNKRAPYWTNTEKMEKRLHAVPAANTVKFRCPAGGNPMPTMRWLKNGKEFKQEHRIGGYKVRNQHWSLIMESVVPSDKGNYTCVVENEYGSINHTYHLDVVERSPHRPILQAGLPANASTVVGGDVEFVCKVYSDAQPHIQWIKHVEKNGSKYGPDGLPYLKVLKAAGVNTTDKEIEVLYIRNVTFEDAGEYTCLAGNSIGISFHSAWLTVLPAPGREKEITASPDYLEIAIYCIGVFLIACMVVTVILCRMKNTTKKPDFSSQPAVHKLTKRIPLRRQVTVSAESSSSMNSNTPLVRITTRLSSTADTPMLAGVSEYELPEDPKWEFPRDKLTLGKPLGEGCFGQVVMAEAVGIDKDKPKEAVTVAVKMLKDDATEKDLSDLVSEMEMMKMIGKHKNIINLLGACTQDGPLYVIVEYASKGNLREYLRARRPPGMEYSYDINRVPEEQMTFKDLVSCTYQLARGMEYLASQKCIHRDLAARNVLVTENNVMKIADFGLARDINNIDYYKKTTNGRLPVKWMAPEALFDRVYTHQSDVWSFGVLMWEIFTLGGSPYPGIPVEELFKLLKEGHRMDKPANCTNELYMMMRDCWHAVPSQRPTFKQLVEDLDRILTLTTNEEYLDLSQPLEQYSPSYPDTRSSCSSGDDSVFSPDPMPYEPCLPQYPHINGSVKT

For orientation: IC50 means the concentration at which inhibition is half-maximal. A lower IC50 goes with inhibition by little substance. A word on the Kd: it is the equilibrium constant for the complex coming apart. Consider `C[C@H]1CN(C2(C)CN(c3ccc(-c4n[nH]c5ccc(O[C@H](C)c6c(Cl)cncc6Cl)cc45)cn3)C2)CCO1` [Example 212, (S)-4-(1-(5-(5-((R)-1-(3,5-dichloropyridin-4-yl)ethoxy)-1H-indazol-3-yl)pyridin-2-yl)-3-methylazetidin-3-yl)-2-methylmorpholine], for which the IC50 lay within 0.1 to 50 nM in assay [1], 0.1 to 50 nM in assay [2] and 50 to 200 nM in assay [3]. Besides, the Kd on FGFR4, on FGFR3, at FGFR2, on FGFR3 (V555M) and at FGFR1 was 1 to 50 nM each time.

With `C[C@@H](Oc1ccc2[nH]nc(-c3cnc(N4CC(C)(NCCO)C4)c(F)c3)c2c1)c1c(Cl)cncc1Cl` [Example 114, (R)-2-((1-(5-(5-(1-(3,5-dichloropyridin-4-yl)ethoxy)-1H-indazol-3-yl)-3-fluoropyridin-2-yl)-3-methylazetidin-3-yl)amino)ethan-1-ol], the IC50 in assay [1], in assay [2] and in assay [3] was 0.1 to 50 nM throughout. For the same molecule, the Kd on FGFR4, at FGFR3, on FGFR2, at FGFR3 (V555M) and at FGFR1 was 1 to 50 nM each time.

For `C[C@@H](Oc1ccc2[nH]nc(-c3ccc(N4CC(C)(NC(=O)CN(C)C)C4)nc3)c2c1)c1c(Cl)cncc1Cl` [Example 95, (R)-N-(1-(5-(5-(1-(3,5-dichloropyridin-4-yl)ethoxy)-1H-indazol-3-yl)pyridin-2-yl)-3-methylazetidin-3-yl)-2-(dimethylamino)acetamide], the half-maximal inhibitory concentration (IC50) in assay [1], in assay [2] and in assay [3] was 0.1 to 50 nM throughout. The equilibrium dissociation constant (Kd) on FGFR4, on FGFR3, on FGFR2, at FGFR3 (V555M) and at FGFR1 was 1 to 50 nM each time.

Regarding `COc1cc2[nH]nc(-c3cnc(N4CC(C)(NCC(C)(C)O)C4)c(F)c3)c2cc1O[C@H](C)c1c(Cl)cncc1Cl` [Example 159], the IC50 in assay [1], in assay [2] and in assay [3] was 0.1 to 50 nM each time. For the same molecule, the Kd at FGFR4, at FGFR3, on FGFR2, on FGFR3 (V555M) and on FGFR1 was 1 to 50 nM in each case.

With `C[C@@H](Oc1ccc2[nH]nc(-c3cnc(N4CC(C)(N5C[C@@H]6C[C@H]5CO6)C4)c(F)c3)c2c1)c1c(Cl)cncc1Cl` [Example 218, (1S,4S)-5-(1-(5-(5-((R)-1-(3,5-dichloropyridin-4-yl)ethoxy)-1H-indazol-3-yl)-3-fluoropyridin-2-yl)-3-methylazetidin-3-yl)-2-oxa-5-aza-bicyclo[2.2.1]hep-tane], the IC50 in assay [1], in assay [2] and in assay [3] was 0.1 to 50 nM throughout. For the same molecule, the Kd at FGFR4, on FGFR3, at FGFR2, at FGFR3 (V555M) and on FGFR1 was 1 to 50 nM in each case.

For `CC(C)=CCC1(N)CN(c2ccc(-c3n[nH]c4ccc(O[C@H](C)c5c(Cl)cncc5Cl)cc34)nn2)C1` [Example 378, (R)-1-(6-(5-(1-(3,5-dichloropyridin-4-yl)ethoxy)-1H-indazol-3-yl)pyridazin-3-yl)-3-(3-methylbut-2-en-1-yl)azetidin-3-amine], the IC50 is 0.1 to 50 nM in assay [1], 50 to 200 nM in assay [2] and above 1000 nM in assay [3]. In addition, the Kd at FGFR3 and at FGFR1 was 1 to 50 nM throughout.

For `C[C@@H](Oc1ccc2[nH]nc(-c3ccc(N4CC(N)(C(=O)N(C)C)C4)nn3)c2c1)c1c(Cl)cncc1Cl` [Example 301, (R)-3-Amino-1-(6-(5-(1-(3,5-dichloropyridin-4-yl)ethoxy)-1H-indazol-3-yl)pyridazin-3-yl)-N,N-dimethylazetidine-3-carboxamide], the figures for the IC50 in assay [1], in assay [2] and in assay [3] were 0.1 to 50 nM, 0.1 to 50 nM and 50 to 200 nM, respectively. Also, the equilibrium dissociation constant (Kd) at FGFR3 and on FGFR1 was 1 to 50 nM in each case.

For the molecule `C=CCNC1(CC#N)CN(c2ncc(-c3n[nH]c4ccc(O[C@H](C)c5c(Cl)cncc5Cl)cc34)cc2F)C1` [Example 248, 2-[3-(allylamino)-1-[5-[5-[(1R)-1-(3,5-dichloro-4-pyridyl)ethoxy]-1H-indazol-3-yl]-3-fluoro-2-pyridyl]azetidin-3-yl]acetonitrile], the results for the IC50 in assay [1], in assay [2] and in assay [3] were 0.1 to 50 nM, 50 to 200 nM and 200 to 1000 nM, respectively. The Kd at FGFR3 and on FGFR1 was 1 to 50 nM throughout.

For the molecule `C[C@@H](Oc1ccc2[nH]nc(-c3cnc(N4CC(N)(c5ccnn5C)C4)c(F)c3)c2c1)c1c(Cl)cncc1Cl` [Example 392, (R)-1-(5-(5-(1-(3,5-dichloropyridin-4-yl)ethoxy)-1H-indazol-3-yl)-3-fluoropyridin-2-yl)-3-(1-methyl-1H-pyrazol-5-yl)azetidin-3-amine], the IC50 in assay [1] fell in the range of 0.1 to 50 nM; in assay [2], 0.1 to 50 nM; in assay [3] it was 50 to 200 nM. The Kd at FGFR3 (setting [4]) and at FGFR1 (setting [4]) was 1 to 50 nM each time.

Take `CCOCC1(N)CN(c2ncc(-c3n[nH]c4ccc(O[C@H](C)c5c(Cl)cncc5Cl)cc34)cc2F)C1` [Example 390, 1-[5-[5-[(1R)-1-(3,5-dichloro-4-pyridyl)ethoxy]-1H-indazol-3-yl]-3-fluoro-2-pyridyl]-3-(ethoxymethyl)azeti-din-3-amine]: the IC50 was in the range of 0.1 to 50 nM in assay [1], 0.1 to 50 nM in assay [2] and 50 to 200 nM in assay [3]. The Kd on FGFR3 (setting [4]) and at FGFR1 (setting [4]) was 1 to 50 nM throughout.

Consider `C[C@@H](Oc1ccc2[nH]nc(-c3ccc(N4CC(C)(NCC5CC5)C4)nn3)c2c1)c1c(Cl)cncc1Cl` [Example 249, (R)-N-(cyclopropyl-methyl)-1-(6-(5-(1-(3,5-dichloropyridin-4-yl)ethoxy)-1H-indazol-3-yl)pyridazin-3-yl)-3-methylazetidin-3-amine], for which the IC50 in assay [1] lay in the range of 0.1 to 50 nM; in assay [2], 0.1 to 50 nM; in assay [3], 50 to 200 nM. For the same molecule, the Kd at FGFR3 and on FGFR1 was 1 to 50 nM in each case.

With `COc1cc2[nH]nc(-c3cnc(N4CC5(CC5)C4)c(C#N)c3)c2cc1O[C@H](C)c1c(Cl)cncc1Cl` [Example 65, 2-(5-azaspiro[2.3]hexan-5-yl)-5-[5-[(1R)-1-(3,5-dichloro-4-pyridyl)ethoxy]-6-methoxy-1H-indazol-3-yl]pyridine-3-carbonitrile], the results for the IC50 in assay [1], in assay [2] and in assay [3] were 0.1 to 50 nM, above 1000 nM and 200 to 1000 nM, respectively. The Kd on FGFR2 was 1 to 50 nM.

Turning to `C[C@@H](Oc1ccc2[nH]nc(-c3ccc(N4CCC(N)(CS(C)(=O)=O)CC4)nn3)c2c1)c1c(Cl)cncc1Cl` [Example 386, (R)-1-(6-(5-(1-(3,5-dichloropyridin-4-yl)ethoxy)-1H-indazol-3-yl)pyridazin-3-yl)-4-((methylsulfonyl)methyl)piperidin-4-amine], the IC50 is 0.1 to 50 nM in assay [1], 0.1 to 50 nM in assay [2] and 50 to 200 nM in assay [3]. Also, the Kd at FGFR3 (setting [4]) and on FGFR1 (setting [4]) was 1 to 50 nM throughout.
